Experimental findings from PMC4038613, “A New Class of Multimerization Selective Inhibitors of HIV-1 Integrase” (PLoS Pathogens, 2014) are described below.

Like-named read-outs stand apart in the source and are kept apart here.

A word on the IC50: it is the point on the concentration scale where inhibition reaches its midpoint. One may read the EC50 as the concentration at which the effect is half-maximal.

The test system of assay [1] is HIV-1NL4-3. Briefly: microbe, parasite or virus in culture. Type of assay: cell-based.
Assay [2] has as its system VSV-G pseudotyped HIV-1-Luc in PSIP1 KO HEK293T cells. Briefly: microbe, parasite or virus in culture. The assay is classed as cell-based. To be noted: for EC50: Human immunodeficiency virus 1, HEK-293T.
The test system of assay [3] is HIV-1 capsid (p24). Description: Sucrose density gradient fractionation of detergent-lysed virions. The assay is classed as cell-based. Conditions: 1 µM KF116, fractions 18–20.
Description: Cell-free virions were harvested, detergent-lysed, and separated on 30–70% linear sucrose density gradients. Twenty-one 0.5 ml fractions were collected from the top of the gradient and subjected to SDS-PAGE and immunoblotted with HIV-1 Gag antisera to monitor the distribution of HIV-1 capsid. […] (D) Quantitation of HIV-1 capsid (p24) signal intensity from (B) as measured by ImageJ software. Graph represents the relative distribution of HIV-1 capsid (p24) in each of the sucrose density gradient fractions.
Sucrose density gradient fractionation was carried out as described previously [74] with some modifications. Briefly, HIV-1 virions were produced in the presence of the inhibitor or diluent control (DMSO) and cell-free virions were concentrated over a 25% sucrose cushion by ultra-centrifugation at 28,000 rpm for 2 h at 4°C in SW41 rotor (Beckman). Pelleted virions were resuspended in 300 µl STE buffer (10 mM Tris pH 7.5, 100 mM NaCl, 1 mM EDTA), lysed with 0.5% Triton X100 for 2 minutes at room temperature. Lysed virions were loaded on 30–70% linear sucrose density gradients in STE buffer, and ultra-centrifuged at 28,500 rpm for 16 h at 4°C in SW41 rotor (Beckman). Twenty-one 0.5-ml fractions were collected from the top of the gradient and subjected to SDS-PAGE and immunoblotted with HIV-1 Gag antisera to monitor the distribution of HIV-1 capsid.
For assay [4], the system named is VSV-G pseudotyped HIV-1-Luc. The assay is classed as cell-based.
In assay [5] the test system is HIV-1 virions. Briefly: Virion RNA packaging. The assay is classed as cell-based. Conditions: 1 µM KF116. The procedure: HEK293T cells (2×10^6 cells/100 mm culture dish in 10 ml of complete medium) were transfected with HIV-1 provirus (pNL4-3) and cultured for 24 h to ensure expression of the provirus as described above. Next, the cells were treated with the indicated inhibitor or diluent control (DMSO) for 1 h. The culture supernatant was replaced with fresh complete medium containing either the inhibitor or DMSO, and cells were then cultured for another 24 h to allow for the production of HIV-1 particles in the presence of the inhibitor or diluent control. The virus containing cell-free supernatant was collected, filtered through a 0.45 µm filter, and concentrated over a 25% sucrose cushion by ultra-centrifugation at 28,000 rpm for 2 h at 4°C in SW41 rotor (Beckman). […] RNA was isolated from the pelleted virions and subsequent cDNA preparations were used for gag quantitative PCR as described above. Relative virion RNA packaging was calculated by normalizing virion Gag RNA copy numbers to Gag p24.
In parallel, aliquots of cell-free virus-containing supernatant were used to measure the amount of viral particles produced using HIV-1 Gag p24 ELISA. Virion RNA packaging was calculated by normalizing virion Gag RNA copy numbers to Gag p24. […]

For assay [6], the system named is virion-associated RT. Description: Virion-associated Reverse Transcriptase (RT) assay. The assay is classed as biochemical, HIV-1. To be noted: virions produced with 1 µM KF116. The procedure:
Virions generated in the presence of inhibitor or diluent control (DMSO) was concentrated over 25% sucrose cushion. The virion-associated RT activity assay was performed as described previously, [81] with minor changes. Briefly, equivalent amounts of concentrated virions (based on HIV-1 p24 ELISA) were incubated with RT buffer, containing 50 mM Tris (pH 7.8), 75 mM KCL, 5 mM MgCl2, 2 mM DTT, 0.05% Nonidet P-40 (v/v), 5 µg/ml Poly r(A). Poly d(T)12–18, and 10 µCi of α-^32P dTTP, in 35 µl final volume. The reactions were incubated at room temperature for 3 h. Duplicate 10 µl of the final reactions were blotted onto a 96-well DEAE Filtermat paper (Wallac-Perkin Elmer), dried, washed and processed as described previously.
The initiation of reverse transcription from total viral RNA was measured using an in vitro HIV-1 reverse transcription reaction, which extends tRNA^Lys3 primer on viral RNA template by +6-nt. The final reaction products were resolved by PAGE and detected by phosphorimager analysis. (Upper panel) A representative image of the 6-nt extension products is shown. (Lower panel) The bar graph represents quantification of bands from the upper panel using ImageJ software. The signal intensity obtained for the non-treated (DMSO) sample was set to 100%. […] Equivalent amounts of concentrated virions, based on HIV-1 p24 ELISA, were analyzed for virion-associated RT activity. […]

For assay [7], the system named is HIV-1 virions in HEK293T cells. Briefly: Viral entry assay. The assay is classed as cell-based. Conditions: virions produced with 1 µM KF116.

Turning to `Cc1nc(-c2nc3ccc(Cl)cc3[nH]2)c(C)c(-c2ccccc2)c1C(OC(C)(C)C)C(=O)O` (centres unmarked) [KF116], the IC50 in assay [1] (Human immunodeficiency virus 1, read-out: Antiviral activity (IC50), HIV-1NL4-3, full replication cycle) is roughly 24 nM. Moreover, the half-maximal effective concentration (EC50) in assay [1] (Human immunodeficiency virus 1, read-out: EC50, Full Replication Cycle, KF116 added to both producer and target cells, mean ± SD, three experiments) is 24 nM; in assay [2] (read-out: EC50, KO producer cells), roughly 75 nM; in assay [2] (read-out: EC50, KO target cells), roughly 1400 nM. In assay [2], the “effect of complete loss of LEDGF/p75 protein in virus-producer cells on IC50 values” is “did not alter”. Besides, the “reduction of HIV-1 capsid (p24) in higher density fractions” value in assay [3] is greater than 95%. Also, the “effect on replication intermediates in target cells of virions produced in presence of inhibitor” value in assay [4] is “sharply reduced levels of early and late RT products”. Further, the “effect on replication intermediates when inhibitor added to target cells” value in assay [4] is “had no effects on reverse transcription, integration, levels of 2-LTRs, or viral expression”. In addition, the “effect on viral genomic RNA packaging” value in assay [5] is recorded as “did not affect”. In assay [6], the “effect on virion-associated RT activities” value was “no effects”. The “effect on viral entry (incoming genomic RNA in target cells)” value in assay [7] was “does not significantly compromise viral entry”.
